In article PMC9609996, “SAR Study and Molecular Mechanism Investigation of Novel Naphthoquinone-furan-2-cyanoacryloyl Hybrids with Antitumor Activity” (Pharmaceutics, 2022):

Experiments:
[1] = test system: STAT3 in HeLa cells; assay: Western blot, STAT3 and p-STAT3 (Y705); format: cell-based, human; details: 6–12 μM, 24 h
Protocol: As many quinone compounds have anti-proliferation activity by inhibiting the STAT3 [34], we evaluated whether compound 5c could inhibit its phosphorylation. HeLa cells were incubated with different concentrations (6–12 μM) of 5c for 24 h. Then, the levels of total STAT3 and phosphorylated STAT3 at the tyrosine 705 residue were detected by a Western blot analysis.
Protein levels were determined by the standard Western blot assay. HeLa cells were incubated with different concentrations of compound 5c or 0.1% DMSO for 24 h. […] The bound immuno-complexes were detected using a ChemiDOC XRS+ system (BioRad Laboratories, Hercules, CA, USA).

[2] = test system: HCT116; assay: CCK-8 anti-proliferation assay, HCT116; format: cell-based, human; details: Homo sapiens, mean ± SD
Protocol: (§1) Human cervical cancer HeLa, human prostate cancer PC3, human colonic carcinoma HCT116, human lung carcinoma A549, human breast cancer MDA-MB-231, mouse melanoma B16, human ovarian cancer SKOV3, human hepatoma Hep3B, and human liver L02 cells were purchased from the Cell Bank of Shanghai Institute of Biochemistry and Cell Biology, Chinese Academy of Sciences (Shanghai, China). The HeLa, A549, B16, PC3, MDA-MB-231, HCT116, and L02 cells were cultured in Dulbecco’s modified Eagle medium (DMEM, Gibco Inc.; Gaithersburg, MD, USA). All cultures were supplied with 10% fetal bovine serum (FBS; YHSM, Beijing, China), 100 IU/mL of penicillin, and 100 μg/mL of streptomycin, and cells were incubated at 37 °C in an atmosphere of 5% CO2.
(§2) A CCK-8 kit (MCE, USA) was used to perform a CCK-8 assay. Cells were plated and grown in the 96-well plates for the indicated period (48 h) in the incubator, followed by an incubation with the CCK-8 solutions for 1–4 h. Subsequently, the absorbance (450 nm) was measured by a microplate reader. The median inhibitory concentration (IC50) was determined from the dose–response curve. Experiments were performed in a triplicate.

[3] = test system: HeLa; assay: CCK-8 anti-proliferation assay, HeLa; format: cell-based, human; details: Homo sapiens, mean ± SD
Protocol: as §1, §2

[4] = target: recombinant STAT3 (Homo sapiens, UniProt P40763); assay: Biolayer interferometry (BLI) assay; details: 5c 7.81 to 250 μM, 25 °C, read-out: binding affinity (KD)
recombinant STAT3, sequence (P40763 whole entry): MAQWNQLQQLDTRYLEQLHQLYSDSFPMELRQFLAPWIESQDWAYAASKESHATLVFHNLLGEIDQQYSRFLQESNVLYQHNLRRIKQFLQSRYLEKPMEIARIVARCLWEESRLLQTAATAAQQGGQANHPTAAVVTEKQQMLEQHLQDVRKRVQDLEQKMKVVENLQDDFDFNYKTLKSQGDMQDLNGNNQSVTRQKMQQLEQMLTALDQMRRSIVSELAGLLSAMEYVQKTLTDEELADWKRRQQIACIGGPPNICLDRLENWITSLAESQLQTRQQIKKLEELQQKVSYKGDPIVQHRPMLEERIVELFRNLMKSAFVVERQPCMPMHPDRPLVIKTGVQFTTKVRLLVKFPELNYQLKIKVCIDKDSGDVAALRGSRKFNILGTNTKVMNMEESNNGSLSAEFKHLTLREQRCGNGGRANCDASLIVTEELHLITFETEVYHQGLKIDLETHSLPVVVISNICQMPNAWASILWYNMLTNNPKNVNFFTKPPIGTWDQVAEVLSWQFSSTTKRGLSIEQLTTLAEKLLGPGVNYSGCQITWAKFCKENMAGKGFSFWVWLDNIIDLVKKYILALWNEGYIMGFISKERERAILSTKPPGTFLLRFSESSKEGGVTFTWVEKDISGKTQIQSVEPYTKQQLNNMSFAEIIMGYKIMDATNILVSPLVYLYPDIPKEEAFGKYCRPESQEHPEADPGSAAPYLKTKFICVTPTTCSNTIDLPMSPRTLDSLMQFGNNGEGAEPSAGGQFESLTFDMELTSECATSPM
Protocol: To confirm that compound 5c is a direct STAT3 inhibitor, a BLI (Biolayer interferometry) analysis was performed. Briefly, recombinant STAT3 with a His-tag was immobilized on SSA biosensors, and the dissociation constants were determined by measuring the binding to serial dilutions of 5c at concentrations ranging from 7.81 to 250 μM (Figure 10A). The signal was collected, and the kinetic affinity was calculated by the software. The steady-state curve reaches saturation (Figure 10B).
Purified recombinant STAT3 proteins were biotinylated using the EZ-Link biotinylation reagent (Thermo Fisher Scientific). Briefly, the protein and biotinylation reagent were mixed with a 1:1 molar ratio in PBS at 4 °C. Low biotinylation reagent concentration was applied to avoid protein over-biotinylation. These reaction mixtures were incubated at room temperature for 30 min to allow for the completion of the reaction. Reaction mixture was then dialyzed using 10K MWCO dialysis cassettes (Thermo Fisher Scientific) to remove unreacted biotinylation reagent.
BLI experiments were performed using an OctetRED96 instrument from ForteBio. All assays were run at 25 °C with continuous 1000 RPM shaking. […] The resulting data were analyzed based on a 1:1 binding model from which the kon and koff values were obtained. After, the KD values were calculated.

[5] = test system: MDA-MB-231; assay: CCK-8 anti-proliferation assay, MDA-MB-231; format: cell-based, human; details: mean ± SD
Protocol: as §1, §2

[6] = test system: A549; assay: CCK-8 anti-proliferation assay, A549; format: cell-based, human; details: mean ± SD; for IC50: 48 h
Protocol: as §1, §2

[7] = test system: ROS in HeLa cells; assay: Cellular ROS detection (DCFDA flow cytometry); format: cell-based, human; details: 6, 9, 12 μM, 6 h
Protocol: To measure reactive oxygen species (ROS) production, 2′,7′-dichlorofluorescein diacetate (DCFDA) (Thermo Fisher Scientific, Waltham, MA, USA; D399) was used. DCFDA is a fluorogenic dye that, after diffusion into the cell, is oxidized by ROS into 2′,7′-dichlorofluorescein (DCF), a highly fluorescent compound that can be detected by fluorescence spectroscopy. To measure ROS production, HeLa cells were treated with compound 5c at 6 μM, 9 μM, and 12 μM for 6 h. Then, cells were washed with pre-warmed 1X PBS and were incubated at 37 °C with 10 μM of DCFDA for 30 min in PBS. Subsequently, the HeLa cells were washed and analyzed in FL-1 using a FACScalibur flow cytometer (BD, USA) and using CELL Quest software (BD Biosciences, San Jose, CA, USA). Live cells were gated according to their forward scatter (FSC) and side scatter (SSC) properties. For each analysis, 20,000 events were recorded.

Q: `N#C/C(=C\c1ccc(C2=CC(=O)c3ccccc3C2=O)o1)C(=O)NCCN1CCOCC1` [Compound 5c, (E)-2-cyano-3-(5-(1,4-dioxo-1,4-dihydronaphthalen-2-yl)furan-2-yl)-N-(2-morpholinoethyl)acrylamide] was tested. Which “Y705 STAT3 phosphorylation” value [1] did it give?
A: dose-dependently abrogated

Q: What about the “level of total STAT3” value [1] of the same compound?
A: slightly down-regulated

Q: And the inhibition at 20 µM ([2]; HCT-116, 20 μM, read-out: Inhibition Rate (%) at 20 μM HCT116)?
A: 67.67 ± 0.01%

Q: And the IC50 ([2]; HCT-116, 48 h)?
A: 13.38 ± 0.04 µM

Q: And the inhibition at 20 µM ([3]; 20 μM, read-out: Inhibition Rate (%) at 20 μM HeLa)?
A: 75.78 ± 0.05%

Q: And the IC50 ([3]; 48 h)?
A: 3.1 ± 0.02 µM

Q: And the Kd [4]?
A: 13 µM

Q: What about the IC50 ([5]; 48 h) of the same compound?
A: 40.74 ± 0.12 µM

Q: What about the IC50 ([5]; Homo sapiens, MDA-MB-231, 48 h) of the same compound?
A: > 20.5 µM

Q: What about the IC50 [6] of the same compound?
A: 35.27 ± 0.07 µM

Q: And the inhibition at 20 µM ([6]; Homo sapiens, A549, 20 μM, read-out: Inhibition Rate (%) at 20 μM A549)?
A: 24.69 ± 0.04%

Q: What about the IC50 ([6]; Homo sapiens, A549, 48 h) of the same compound?
A: > 20.5 µM

Q: What about the “level of ROS in cancer cells” value [7] of the same compound?
A: significantly increased
